The values below come from patent US20040057926A1, “Modulation of the immune response through the manipulation of arginine levels” (LSU Medical Center, priority 2002, published 2004).

The subject of assay [1] is peritoneal macrophages (PM). As to the kind of experiment: Extra-cellular L-Arg concentration in supernatants of peritoneal macrophages (HPLC). Type of assay: cell-based, mice. The conditions noted are these: for extra-cellular L-Arg levels (mean of three experiments): L-Arg 2 mM, NOHA 100 μM, Nor-NOHA 50 μM; for rapid decrease in the extra-cellular levels of L-Arg: PM stimulated with IL-4+IL-13. The protocol: Jurkat T-cells, a CD4^+ cell line (Clone E6-1) (ATCC, Manassas, Va.) and normal stimulated T-cells were used to test the effect of ASE I, ASE II and iNOS produced by PM on CD3ζ expression. Six-week old female C57BL/6 mice were used to isolate peritoneal macrophages (PM). Briefly, 3 ml of thioglycolate-brewer (Becton Dickinson, San Jose, Calif.) were injected into the peritoneal cavity of mice for 3 days. Mice were then sacrificed and PM isolated by washing the peritoneum with HBSS. After 2 days of culture in RPMI with 4% fetal bovine serum, unattached cells were washed off and attached cells were used in co-cultures with Jurkat or normal T-cells.
(§1) PM were cultured in 6 well plates in RPMI containing 150 μM L-Arg and stimulated with murine rIL-4 (50 U/ml) and murine rIL-13 (50 ng/ml), or murine rIFN-γ (100 U/ml) for 24 hours. Then 1×10^6 normal T-cells stimulated with anti-CD3 plus anti-CD28 or 1×10^6 Jurkat cells, were cultured in the top chamber of a transwell system having 0.4 μm pores (Falcon, Franklin lakes, N.J.). CD3ζ expression was measured in Jurkat cells or T lymphocytes at different time points. PM were detached using trypsin/EDTA and the expression of protein and RNA for CAT-2B, ASE I, ASE II and iNOS was tested by western blot and northern blot respectively. Cytoplasmic extracts from PM were used to test ASE activity. Supernatants from stimulated PM were used to measure NO production using the Griess reagent method (Molecular Probes, Eugene, Oreg.). In addition, the extra-cellular concentration of L-Arg was tested in supernatants by HPLC (Dr. Gu Yao Wu laboratory, University of Texas) as described previously. O'Quinn, P. R., D. A. Knabe, and G. Wu. 2002. Arginine catabolism in lactating porcine mammary tissue. J Anim Sci. 80:467-474.

Assay [2] relates to Jurkat cells. The assay is described as follows: Co-culture in transwells of stimulated PM and Jurkat cells, CD3ζ expression. The conditions noted are these: for CD3ζ in Jurkat cells co-cultured with PM stimulated with IL-4+IL-13: NOHA 100 μM, Nor-NOHA 50 μM, L-Arg 2 mM, L-NIL 5 μg/ml, catalase 200 U/ml, L-NMMA, L-NNA, L-NAME 1 mM. Type of assay: cell-based. As for the experimental part:
as §1
Flow cytometry analysis was performed as previously described. Taheri, F., J. B. Ochoa, Z. Faghiri, K. Culotta, H. J. Park, M. S. Lan, A. H. Zea, and A. C. Ochoa. 2001. L-Arginine regulates the expression of the T-cell receptor zeta chain (CD3zeta) in Jurkat cells. Clin Cancer Res 7:958s-965s. Briefly, 5×10^5 Jurkat cells or T lymphocytes were washed once with Dulbecco phosphate-buffered saline 1× (D-PBS) and resuspended in 200 μL of D-PBS containing 1 μg of anti-CD3ε or isotype control. Cells were incubated for 15 min at 4° C., washed with D-PBS and resuspended in 200 μl D-PBS containing 500 μg/ml of digitonin plus 1 μg of anti-CD3ζ or 1 μg of isotypic control. Cells were incubated for 8 minutes after which they were washed and resuspended in 400 μl of D-PBS. Fluorescence acquisition and analysis were done using a Coulter-EPICS XL flow cytometer (Beckman-Coulter) with a 488 nm argon laser. The data were expressed as mean channel fluorescence intensity (MFI).

Assay [3] has as its target CAT-1 (Homo sapiens, UniProt P30825). Particulars: read-out: Km for L-Arg; cited from earlier work.
Assay [4] concerns Jurkat cells. The assay is described as follows: Proliferation of Jurkat cells with H. pylori sonicate (3H-thymidine). The class given is cell-based. Particulars: NOHA 10 μg/ml, L-arginine 2 mM; sonicate 50 μg/ml. The protocol:
Unless otherwise stated, the cells were always cultured in RPMI 1640 (Gibco Life-Technologies; Rockville, Md.) which contains 1104 μM L-arginine, 2.5 mM of L-glutamine, (Gibco), 25 mM HEPES (Gibco), 100 μg/ml of penicillin/streptomycin (Gibco), and 10% heat inactivated FCS (Hyclone). Jurkat cells were maintained at 0.5×10^6/ml. For proliferation assays Jurkat cells or peripheral blood mononuclear cells (PBMC) were placed at 2×10^5/well in round-bottom 96-well plates (Corning; Corning, N.Y.) and incubated for 2 h with increasing concentrations of the H. pylori sonicate ranging from 0.01 μg/ml to 100 μg/ml. After this, 30 ng/ml of anti-CD3 (Ortho Diagnostics, Raritan, N.J.) and 100 ng/ml of anti-CD28 (Becton-Dickinson Biosciences; Palo Alto, Calif.) were added to the PBMC. Jurkat cells were incubated for an additional 24 h and the PBMC for 48 h. […] The cells were collected onto glass fiber filters (Unifilter GF/B; Packard Bioscience; Meriden, Conn.) and radioactivity was counted in a Beta counter (Microplate Scintillation and Luminiscence Counter, TopCount, Packard).
[…] After addition of the sonicate plus NOHA or sonicate plus L-arginine mixture to the Jurkat cells, 1.0 μCi of ^3H-thymidine (NEN) was added per well, the cells were incubated at 37° C. for 18 h, harvested onto filters and counted in a β-counter (Packard).

Assay [5] has as its system ASE. As to the kind of experiment: ASE activity assay (L-ornithine production) in PM lysates. The class given is biochemical, mice. Particulars: NOHA 100 μM, Nor-NOHA 50 μM. As for the experimental part:
Cell lysates from PM stimulated with IL-4+IL-13 or IFN-γ were tested for ASE activity by measuring the production of L-ornithine. In brief, cell lysates from PM stimulated with IL-4+IL-13 or IFN-γ in the presence or absence of NOHA or Nor-NOHA were added to 50 μl of Tris-HCl (50 mM; pH 7.5) containing 10 mM MnCl2. This mixture was heated at 55-60° C. for 10 min to activate ASE. The hydrolysis reaction from L-Arg to L-ornithine was identified by a colorimetric assay after the addition of ninhydrin solution and incubation at 37° C. for 1 h.

Assay [6] concerns T lymphocytes. The assay is described as follows: Co-culture in transwells of stimulated PM and stimulated normal T lymphocytes, CD3ζ expression. The class given is cell-based, human. As for the experimental part:
T-cells were isolated from mononuclear cells of healthy donors by T-cell enrichment columns (R&D Systems, Minneapolis, Minn.) according to manufacturer specifications. T-cell purity (CD3+) ranged between 89-95%. The cycle of internalization and re-expression of the TCR-CD3 complex was induced by T-cell stimulation with 1 μg/ml of anti-CD3, 100 ng/ml of anti-CD28 (Becton Dickinson) and 10 μg/ml of goat anti-mouse IgG (KPL, Gaithersburg, Md.). Cells were stimulated in the absence of L-Arg and added to the co-cultures 24 h after stimulation.
as §1
Flow cytometry analysis was performed as previously described. Taheri, F., J. B. Ochoa, Z. Faghiri, K. Culotta, H. J. Park, M. S. Lan, A. H. Zea, and A. C. Ochoa. 2001. […] Fluorescence acquisition and analysis were done using a Coulter-EPICS XL flow cytometer (Beckman-Coulter) with a 488 nm argon laser. The data were expressed as mean channel fluorescence intensity (MFI).

The subject of assay [7] is H. pylori arginase. The conditions noted are these: McGee, manuscript in preparation; cited from earlier work.
Setting [8] is: PM stimulated with IL-4 + IL-13.

Sequence of CAT-1 (P30825 whole entry): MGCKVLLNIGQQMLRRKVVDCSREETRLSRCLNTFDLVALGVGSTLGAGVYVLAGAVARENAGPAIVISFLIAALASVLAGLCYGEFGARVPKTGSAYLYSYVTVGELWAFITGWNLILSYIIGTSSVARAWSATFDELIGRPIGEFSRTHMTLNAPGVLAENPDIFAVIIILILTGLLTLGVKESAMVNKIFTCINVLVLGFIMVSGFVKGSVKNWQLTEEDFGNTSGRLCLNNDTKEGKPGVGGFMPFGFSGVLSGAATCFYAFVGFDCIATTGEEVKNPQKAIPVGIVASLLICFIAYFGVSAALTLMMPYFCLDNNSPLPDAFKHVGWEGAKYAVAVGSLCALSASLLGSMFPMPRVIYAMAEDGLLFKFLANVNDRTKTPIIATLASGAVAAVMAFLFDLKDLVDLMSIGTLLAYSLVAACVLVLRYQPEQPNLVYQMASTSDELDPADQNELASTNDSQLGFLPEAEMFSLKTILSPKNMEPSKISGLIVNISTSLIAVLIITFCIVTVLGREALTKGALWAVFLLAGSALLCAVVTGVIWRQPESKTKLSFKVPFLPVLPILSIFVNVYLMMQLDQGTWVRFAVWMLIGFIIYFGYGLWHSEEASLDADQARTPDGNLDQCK

Usually Km stands for the substrate concentration at which the rate is half of its maximum. Turning to `N=C(N)NCCC[C@H](N)C(=O)O` [L-arginine], the results for the “extra-cellular L-Arg levels (mean of three experiments)” value in assay [1] (Non-stimulated PM) and in assay [1] (setting [8]) were 1267 µM and 59.8 µM, respectively. Moreover, the “rapid decrease in the extra-cellular levels of L-Arg” value in assay [1] is reported as “partially blocked the rapid decrease”. Also, in assay [2] (2 mM added, CD3ζ tested 24 hours later), the “re-expression of CD3ζ on addition after 24 hours of co-culture” value was “induced the re-expression of CD3ζ”. The “CD3ζ in Jurkat cells co-cultured with PM stimulated with IL-4+IL-13” value in assay [2] is listed as “prevented the decrease of CD3ζ”. The Km in assay [3] is 100 µM. For the same molecule, the “Jurkat cell proliferation in the presence of H. pylori sonicate” value in assay [4] is “prevented a decrease in cell proliferation”.
On to `NC(=NCCC[C@H](N)C(=O)O)NO` [NOHA, NG-hydroxy-L-arginine], for which the “extra-cellular L-Arg levels (mean of three experiments)” value in assay [1] (Non-stimulated PM) turned out to be 101.6 µM; in assay [1] (setting [8]), 75.6 µM. For the same molecule, in assay [1], the “rapid decrease in the extra-cellular levels of L-Arg” value is “partially blocked the rapid decrease”. In addition, in assay [2], the “CD3ζ in Jurkat cells co-cultured with PM stimulated with IL-4+IL-13” value is reported as “prevented the decrease of CD3ζ”. Also, the “intracellular ASE activity” value in assay [5] was “blocked intracellular ASE activity”. Besides, the “Jurkat cell proliferation in the presence of H. pylori sonicate” value in assay [4] was “prevented the decrease in Jurkat cell proliferation”. Further, in assay [6], the “CD3ζ in normal stimulated T lymphocytes co-cultured with IL-4+IL-13 activated PM” value is recorded as “prevented the loss of CD3ζ”. Also, in assay [7], the “inhibition of H. pylori arginase” value is recorded as “only partially inhibit H. pylori arginase”.
